Data on two compounds can be found in patent publication US20200239473A1, “NEW DERIVATIVES OF LICOFELONE” (priority 2015, published 2020).

This series is described as follows: Metabolic stability in minipig intestinal fluid, quantification of licofelone by HPLC/UV. Format: in vitro ADME, Gottingen SPF minipig. As to conditions: diluted minipig intestinal fluid; result in words. How it is done: Metabolic Stability of NSAID in Minipig Intestinal Fluid—Quantification of Licofelone
Intestinal tissue/fluid and enterocyte samples were taken from a 10 month old, female Gottingen SPF minipig. The body weight was 21 kg. The minipig was fasted for approximately 28 hours before sampling of intestinal fluid/tissues and enterocytes. On the day of sampling, the minipig was weighed and anaesthetised. The animal was killed by exsanguination before the sampling of intestinal fluid. An intestinal segment was ligated at both ends before removal. The isolated tissue was placed in isotonic saline and opened by a longitudinal cut for sampling of intestinal fluid.
The intestinal tissue from each segment was transferred into a Centrifuge Tube, immersed in 10 ml 50mM phosphate buffer, pH 6.8 and frozen at −70° C.
b) Incubation Experiments with Minipig Intestinal Fluid (without FaSSIF) […]
A set of six reference solutions (solvent: 1 vol IF and 4 vol 2% bovine serum albumin in FaSSIF pH 6.5) with licofelone concentrations between 38.0 and 0.19 μg/ml and the solvent without licofelone were analysed in duplicate. The obtained concentration/peak area data pairs were subjected to linear regression analysis and the resulting calibration curve (r^2=0.9999) was used for quantification of licofelone in incubation experiments.

Molecules are shown by their SMILES.

In the case of `CC1(C)Cc2c(-c3ccccc3)c(-c3ccc(Cl)cc3)c(CC(=O)OCCOC(=O)Cc3c(-c4ccc(Cl)cc4)c(-c4ccccc4)c4n3CC(C)(C)C4)n2C1` [Reference Example 5b, 2-[2-[2-(4-chlorophenyl)-6,6-di-methyl-1-phenyl-5,7-dihydropyrrolizin-3-yl]acetyl]oxyethyl-2-[2-(4-chloro-phenyl)-6,6-dimethyl-1-phenyl-5,7-dihydropyrrolizin-3-yl]acetate], the “release of licofelone compared with Examples bearing a hydroxy group or an MMF residue as R” value was “significantly lower”. Then `CC1(C)Cc2c(-c3ccccc3)c(-c3ccc(Cl)cc3)c(CC(=O)OCCOCCOCCOCCOC(=O)Cc3c(-c4ccc(Cl)cc4)c(-c4ccccc4)c4n3CC(C)(C)C4)n2C1` [Reference Example 4b, [2-(4-Chloro-phenyl)-6,6-dimethyl-1-phenyl-6,7-dihydro-5H-pyrrolizin-3-yl]acetic acid 2-{2-[2-(2-{2-[2-(4-chloro-phenyl)-6,6-dimethyl-1-phenyl-6,7-dihydro-5H-pyrrolizin-3-yl]-acetoxy}-ethoxy)-ethoxy]-ethoxy}-ethyl ester], with “significantly lower”.
